This is an account of results in patent US20220168307A1, “TREATMENT OF SMA” (Hoffmann-La Roche Inc., priority 2019, published 2022).

pIC50: −log10 of the molar value. “Also recorded” adds a separate entry of the source.

One series has as its target CYP3A4 (Homo sapiens, UniProt P08684). The experiment in a line: Direct inhibition of CYP3A4 (midazolam and testosterone) in human liver microsomes. The class given is in vitro ADME. To be noted: human, microsomes. For orientation: Liver microsomes are a subcellular fraction often used to study metabolism.
Series [1] has as its target T1, CYP2C8 (Homo sapiens, UniProt P10632).
T1 sequence (P10632 1-490): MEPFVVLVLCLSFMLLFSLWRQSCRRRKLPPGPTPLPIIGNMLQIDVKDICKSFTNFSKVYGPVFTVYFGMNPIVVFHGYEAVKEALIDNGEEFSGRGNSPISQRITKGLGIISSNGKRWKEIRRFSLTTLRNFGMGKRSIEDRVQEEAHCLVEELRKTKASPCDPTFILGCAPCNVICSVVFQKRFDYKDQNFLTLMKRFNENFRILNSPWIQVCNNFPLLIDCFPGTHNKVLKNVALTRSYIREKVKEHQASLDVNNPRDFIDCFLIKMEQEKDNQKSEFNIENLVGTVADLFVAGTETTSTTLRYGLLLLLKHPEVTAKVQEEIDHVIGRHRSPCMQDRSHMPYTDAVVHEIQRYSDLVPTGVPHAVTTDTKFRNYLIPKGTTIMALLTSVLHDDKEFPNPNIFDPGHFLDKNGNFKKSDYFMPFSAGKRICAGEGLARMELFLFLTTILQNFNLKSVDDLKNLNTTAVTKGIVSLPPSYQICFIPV
The series is described as follows: Time-dependent inhibition (IC50 shift) of CYP2C8 in human liver microsomes. Conditions: risdiplam up to 12.5 μM. The method, then:
Donors CMV negative for serology are unm
All incubations were conducted in duplicate.
% remaining=(C+I/C^−I)*100

Series [2] can be described thus: Risdiplam treatment of patients with SMA: safety and exposure. Type of series: in vivo, human.
The target of the next series is T2, CYP1A2 (Homo sapiens, UniProt P05177).
T2 sequence (P05177 1-516): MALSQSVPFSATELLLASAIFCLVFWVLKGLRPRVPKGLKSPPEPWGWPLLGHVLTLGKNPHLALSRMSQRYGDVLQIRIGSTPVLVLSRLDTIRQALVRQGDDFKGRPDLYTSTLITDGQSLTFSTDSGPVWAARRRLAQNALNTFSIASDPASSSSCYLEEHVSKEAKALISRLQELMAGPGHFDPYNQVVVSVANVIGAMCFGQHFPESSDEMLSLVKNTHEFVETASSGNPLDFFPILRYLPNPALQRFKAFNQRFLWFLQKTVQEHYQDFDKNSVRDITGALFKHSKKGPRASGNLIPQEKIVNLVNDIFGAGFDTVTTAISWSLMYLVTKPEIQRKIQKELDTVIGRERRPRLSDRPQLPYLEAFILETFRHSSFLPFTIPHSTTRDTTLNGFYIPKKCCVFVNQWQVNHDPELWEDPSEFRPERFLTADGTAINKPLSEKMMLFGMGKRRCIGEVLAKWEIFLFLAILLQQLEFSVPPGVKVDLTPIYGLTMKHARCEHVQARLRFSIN
The experiment in a line: in vitro. Conditions: pooled human liver microsomes, pH 7.4, probe phenacetin.

The target of series [3] is T3, CYP2B6 (Homo sapiens, UniProt P20813).
T3 sequence (P20813 1-491): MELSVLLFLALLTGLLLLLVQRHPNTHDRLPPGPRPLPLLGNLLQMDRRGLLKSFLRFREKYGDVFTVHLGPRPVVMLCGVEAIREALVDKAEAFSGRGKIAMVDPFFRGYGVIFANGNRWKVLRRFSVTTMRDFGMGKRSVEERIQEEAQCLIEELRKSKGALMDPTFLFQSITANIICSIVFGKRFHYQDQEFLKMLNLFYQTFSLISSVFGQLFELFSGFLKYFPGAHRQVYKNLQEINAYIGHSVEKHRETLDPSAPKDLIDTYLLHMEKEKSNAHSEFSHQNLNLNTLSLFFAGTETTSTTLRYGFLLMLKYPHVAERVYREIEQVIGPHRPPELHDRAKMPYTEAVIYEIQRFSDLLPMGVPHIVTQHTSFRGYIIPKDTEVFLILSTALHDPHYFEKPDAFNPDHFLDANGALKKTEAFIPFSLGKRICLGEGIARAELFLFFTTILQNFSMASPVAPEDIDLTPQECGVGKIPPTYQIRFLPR
The experiment in a line: in vitro. Conditions: pooled human liver microsomes, pH 7.4, probe bupropion.

The target in series [4] is T1, CYP2C8. The experiment in a line: biochemical.
In another series the target is CYP2C19 (Homo sapiens, UniProt P33261). The series is described as follows: biochemical.
Sequence of CYP2C19 (P33261 whole entry): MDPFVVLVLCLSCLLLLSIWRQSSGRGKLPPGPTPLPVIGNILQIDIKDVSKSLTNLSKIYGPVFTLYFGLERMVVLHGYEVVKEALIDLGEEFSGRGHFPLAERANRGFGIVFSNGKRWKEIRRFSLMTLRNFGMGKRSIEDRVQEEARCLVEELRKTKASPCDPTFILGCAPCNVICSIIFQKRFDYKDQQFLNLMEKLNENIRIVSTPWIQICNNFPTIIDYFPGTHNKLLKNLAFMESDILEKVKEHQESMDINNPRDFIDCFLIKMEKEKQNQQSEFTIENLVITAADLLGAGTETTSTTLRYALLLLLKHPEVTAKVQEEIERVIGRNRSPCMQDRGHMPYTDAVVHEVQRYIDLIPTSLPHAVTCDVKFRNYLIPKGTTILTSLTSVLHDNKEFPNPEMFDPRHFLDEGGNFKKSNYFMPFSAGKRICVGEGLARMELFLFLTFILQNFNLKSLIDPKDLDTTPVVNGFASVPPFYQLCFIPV
The target in another series is CYP2D6 (Homo sapiens, UniProt P10635). The series is described as follows: biochemical.
Sequence of CYP2D6 (P10635 whole entry): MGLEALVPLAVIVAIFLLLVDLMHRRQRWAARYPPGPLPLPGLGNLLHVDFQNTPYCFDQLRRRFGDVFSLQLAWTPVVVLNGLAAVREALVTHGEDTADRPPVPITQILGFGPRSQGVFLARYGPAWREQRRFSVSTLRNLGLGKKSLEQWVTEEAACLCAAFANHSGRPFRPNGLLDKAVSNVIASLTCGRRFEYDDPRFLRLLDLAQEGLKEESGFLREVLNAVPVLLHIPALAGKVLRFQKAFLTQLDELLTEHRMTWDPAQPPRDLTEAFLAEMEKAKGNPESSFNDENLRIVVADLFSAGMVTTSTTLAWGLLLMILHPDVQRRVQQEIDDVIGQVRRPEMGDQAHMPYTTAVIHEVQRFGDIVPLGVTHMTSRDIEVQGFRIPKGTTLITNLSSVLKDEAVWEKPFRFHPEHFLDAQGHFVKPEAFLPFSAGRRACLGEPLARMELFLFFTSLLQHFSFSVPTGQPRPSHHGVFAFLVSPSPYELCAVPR
The target of series [5] is T3, CYP2B6. The experiment in a line: Direct inhibition of CYP2B6 (bupropion) in human liver microsomes.

Sequence of CYP3A4 (P08684 2-503): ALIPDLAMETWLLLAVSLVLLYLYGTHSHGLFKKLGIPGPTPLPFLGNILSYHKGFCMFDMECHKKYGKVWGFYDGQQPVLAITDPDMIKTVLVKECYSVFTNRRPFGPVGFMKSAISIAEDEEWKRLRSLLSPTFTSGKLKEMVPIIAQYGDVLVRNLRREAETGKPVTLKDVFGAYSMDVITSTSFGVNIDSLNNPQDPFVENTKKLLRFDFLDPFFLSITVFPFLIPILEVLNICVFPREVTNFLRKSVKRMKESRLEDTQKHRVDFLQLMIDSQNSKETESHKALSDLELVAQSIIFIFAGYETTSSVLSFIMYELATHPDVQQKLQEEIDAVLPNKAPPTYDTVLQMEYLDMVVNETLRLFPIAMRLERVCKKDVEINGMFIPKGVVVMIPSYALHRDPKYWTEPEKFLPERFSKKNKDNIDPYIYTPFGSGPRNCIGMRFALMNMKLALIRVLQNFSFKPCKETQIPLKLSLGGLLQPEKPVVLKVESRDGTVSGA

Turning to `Cc1cn2nc(-c3cc(=O)n4cc(N5CCNC6(CC6)C5)ccc4n3)cc(C)c2n1` [risdiplam, 7-(4,7-diazaspiro[2.5]octan-7-yl)-2-(2,8-dimethylimidazo[1,2-b]pyridazin-6-yl)pyrido[1,2-a]pyrimidin-4-one], the pIC50 on CYP3A4 (pH 7.4, IC50, direct inhibition, substrate Midazolam) was under 4.90; against CYP3A4 (pH 7.4, IC50, direct inhibition, substrate Testosterone) it was 4.96; at CYP3A4 (pH 7.4, IC50, direct, CYP3A4-Midazolam Activity), over 4.90; against CYP2C8 [4] it was under 4.90; on CYP2C19 it was under 4.90; against CYP2D6, under 4.90. The “time-dependent inhibition (in words)” value at CYP2C8 [1] was “did not show any significant reversible or time-dependent inhibition; also recorded: No significant reversible or time-dependent inhibition; also recorded: No significant time-dependent inhibition; also recorded: low potential to cause direct or time-dependent inhibition”. Moreover, the “safety and tolerability (in words)” value in [2] (5 mg risdiplam, more than 1 year of treatment, patients with SMA) was “safe and well tolerated”. Also, the AUC in [2] (human, in vivo, SMA patients, steady state, read-out: mean AUCtau at steady state (therapeutic exposure observed in SMA patients)) was 2000 ng·h/mL. The activity at CYP1A2 came to 94%; on CYP2B6 [3], 88%. For the same compound, the “% Control activity at” value at CYP2B6 [5] (direct inhibition, substrate Bupropion, concentration not given, duplicates) is on record as 94%. Besides, the “reversible (direct) inhibition (in words)” value at CYP2B6 [5] (risdiplam up to 12.5 μM) was “did not show any significant reversible or time-dependent inhibition; also recorded: No significant reversible or time-dependent inhibition; also recorded: No significant reversible inhibition; also recorded: low potential to cause direct or time-dependent inhibition”.

In general, pIC50 refers to the negative decadic logarithm of the IC50, by convention in mol/L. Lower therefore signals a high IC50.
